US20250042857A1, “SOS1 Inhibitor With Pyrido-Fused Six-Membered Ring Structure” (HAIHE BIOPHARMA CO., LTD., priority 2021, published 2025)

Legend:
KRAS-G12C/SOS1 = KRAS-G12C/SOS1 (Homo sapiens (Human), UniProt Q07889); test: Detection of inhibitory effects of compounds on KRAS-G12C/SOS1 (KRASG12C/SOS binding kit, HTRF); conditions: Em665/620, read-out: IC50, inhibitory activity on interaction of KRAS-G12C/SOS1
Summary of the method: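 HTRF binding of Tag2-KRAS-G12C to Tag1-SOS1 with compounds (10-point 3-fold dilution from 5,000 nM) for 15 min at room temperature, then anti-Tag1-Tb and anti-Tag2-XL665 for 120 min at 4° C. Em665/620 read; inhibition normalised to control wells, IC50 from variable-slope log(inhibitor) fit.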

p-ERK of PC-9 cells = test: p-ERK HTRF assay in PC-9 cells; assay type: cell-based; conditions: Homo sapiens, PC-9, 1 h, PC-9 lung cancer cells, 1 hour treatment, read-out: IC50, inhibitory activity on p-ERK of PC-9 cells
Summary of the method: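 PC-9 lung cancer cells plated overnight, then exposed 1 h at 37 °C to a 10-point compound series (10,000–[…] nM final, 0.1% DMSO). After 1 h lysis, phospho-ERK1/2 (Thr202/Tyr204) measured by HTRF at 665/615 nm. Percent inhibition calculated from max and min signals.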

KRAS-G12C/SOS1, sequence (Q07889 whole entry, stated change not applied): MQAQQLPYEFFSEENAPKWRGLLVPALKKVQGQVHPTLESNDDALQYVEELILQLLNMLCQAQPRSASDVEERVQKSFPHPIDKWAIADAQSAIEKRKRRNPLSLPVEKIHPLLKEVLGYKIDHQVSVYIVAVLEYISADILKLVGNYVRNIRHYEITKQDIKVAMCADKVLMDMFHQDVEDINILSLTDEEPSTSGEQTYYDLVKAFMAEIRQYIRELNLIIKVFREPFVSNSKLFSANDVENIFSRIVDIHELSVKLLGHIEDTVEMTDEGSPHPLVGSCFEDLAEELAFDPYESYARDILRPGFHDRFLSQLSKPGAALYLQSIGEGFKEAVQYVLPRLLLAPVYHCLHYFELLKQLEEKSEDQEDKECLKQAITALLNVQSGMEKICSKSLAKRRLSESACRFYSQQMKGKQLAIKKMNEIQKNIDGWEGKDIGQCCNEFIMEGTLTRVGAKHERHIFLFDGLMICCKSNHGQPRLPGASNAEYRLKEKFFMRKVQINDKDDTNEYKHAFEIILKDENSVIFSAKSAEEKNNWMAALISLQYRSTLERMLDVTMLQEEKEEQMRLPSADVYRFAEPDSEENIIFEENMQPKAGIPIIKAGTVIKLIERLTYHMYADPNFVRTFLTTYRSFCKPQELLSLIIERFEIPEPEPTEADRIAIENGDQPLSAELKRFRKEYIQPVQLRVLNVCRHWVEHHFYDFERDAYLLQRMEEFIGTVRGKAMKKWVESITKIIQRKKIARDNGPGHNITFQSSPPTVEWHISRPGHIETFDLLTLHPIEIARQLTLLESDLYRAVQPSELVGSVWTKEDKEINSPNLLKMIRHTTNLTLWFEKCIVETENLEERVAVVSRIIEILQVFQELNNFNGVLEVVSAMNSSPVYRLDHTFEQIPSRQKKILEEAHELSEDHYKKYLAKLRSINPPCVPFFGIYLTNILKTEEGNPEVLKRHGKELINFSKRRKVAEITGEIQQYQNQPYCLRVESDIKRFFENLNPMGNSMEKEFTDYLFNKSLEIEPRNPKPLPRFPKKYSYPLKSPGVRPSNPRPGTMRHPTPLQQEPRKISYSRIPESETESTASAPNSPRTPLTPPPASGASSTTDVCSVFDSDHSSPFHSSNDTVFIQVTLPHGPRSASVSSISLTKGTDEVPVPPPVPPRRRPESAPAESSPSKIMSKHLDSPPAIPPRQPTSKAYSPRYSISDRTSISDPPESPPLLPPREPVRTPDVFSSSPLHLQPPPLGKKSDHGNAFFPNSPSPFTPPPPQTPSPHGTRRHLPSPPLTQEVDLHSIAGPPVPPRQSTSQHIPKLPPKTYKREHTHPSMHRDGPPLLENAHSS

Row | Compound | IC50 (KRAS-G12C/SOS1) | IC50 (p-ERK of PC-9 cells)
1 | CC(=O)N1CCN(c2cc3c(N[C@H](C)c4cccc(C(F)F)c4F)ccnc3c(-c3cnn(C)c3)n2)CC1 [Compound B-169] | ≤ 100 nM | ≤ 300 nM
2 | CC(=O)N1CCC(O)(c2cc3c(N[C@H](C)c4cccc(C(F)F)c4F)ccnc3c(-c3cnn(C)c3)n2)CC1 [Compound B-170] | ≤ 100 nM | ≤ 300 nM
3 | C[C@@H](Nc1ccnc2c(-c3cnn(C)c3)nc(C3(O)CCN(C(=O)CO)CC3)cc12)c1cccc(C(F)F)c1F [Compound B-171] | ≤ 100 nM | ≤ 300 nM
4 | C[C@H](O)C(=O)N1CCC(O)(c2cc3c(N[C@H](C)c4cccc(C(F)F)c4F)ccnc3c(-c3cnn(C)c3)n2)CC1 [Compound B-172] | 100 to 500 nM | 300 to 1000 nM
5 | COc1nc(C2(O)CCN(C(=O)CO)CC2)cc2c(N[C@H](C)c3cccc(C(F)F)c3F)ccnc12 [Compound B-173] | ≤ 100 nM | ≤ 300 nM
6 | COc1nc(C2(O)CCN(C(=O)[C@H](C)O)CC2)cc2c(N[C@H](C)c3cccc(C(F)F)c3F)ccnc12 [Compound B-174] | 100 to 500 nM | 300 to 1000 nM
7 | Cc1nc(C2(O)CCN(C(=O)CO)CC2)cc2c(N[C@H](C)c3cccc(C(F)F)c3F)ccnc12 [Compound B-175] | ≤ 100 nM | ≤ 300 nM
8 | Cc1nc(C2(O)CCN(C(=O)[C@H](C)O)CC2)cc2c(N[C@H](C)c3cccc(C(F)F)c3F)ccnc12 [Compound B-176] | ≤ 100 nM | 300 to 1000 nM
